Assay results from the supplement of paper PMC10307832.

Key:
Experiment in all cases: relative viability (nuclei count vs DMSO), 5 days (fraction); higher = more cells survive
[1] = compound: CS(=O)(=O)N1CCN(Cc2cc3nc(-c4cccc5[nH]ncc45)nc(N4CCOCC4)c3s2)CC1 [Pictilisib] + CCNC(=O)c1noc(-c2cc(C(C)C)c(O)cc2O)c1-c1ccc(CN2CCOCC2)cc1 [Luminespib] (partner 0.01 µM)
How it was run: (§1)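 Each reported value is a median over duplicate plates. It expresses relative viability: treated-well nuclei count divided by vehicle-well nuclei count. Lung cancer cell lines in 1536-well plates were dosed by pin tool a day after seeding, alone with one drug or with a fixed anchor-drug dose plus five library-drug doses (not always all listed) in √10 steps, and nuclei were counted after 5 days.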

[2] = compound: NC1(c2ccc(-c3nc4ccn5c(=O)[nH]nc5c4cc3-c3ccccc3)cc2)CCC1 [MK-2206] + COc1cc2c(Oc3ccc(NC(=O)C4(C(=O)Nc5ccc(F)cc5)CC4)cc3F)ccnc2cc1OCCCN1CCOCC1 [Foretinib] (partner 0.25 µM)
How it was run: as §1

[3] = compound: NC1(c2ccc(-c3nc4ccn5c(=O)[nH]nc5c4cc3-c3ccccc3)cc2)CCC1 [MK-2206] + CS(=O)(=O)CCNCc1ccc(-c2ccc3ncnc(Nc4ccc(OCc5cccc(F)c5)c(Cl)c4)c3c2)o1 [Lapatinib] (partner 2 µM)
How it was run: as §1

[4] = compound: NC1(c2ccc(-c3nc4ccn5c(=O)[nH]nc5c4cc3-c3ccccc3)cc2)CCC1 [MK-2206] + O=C(CCCCCCC(=O)Nc1ccccc1)NO [Vorinostat] (partner 1 µM)
How it was run: as §1

[5] = compound: NC1(c2ccc(-c3nc4ccn5c(=O)[nH]nc5c4cc3-c3ccccc3)cc2)CCC1 [MK-2206] + O=C(c1cc(Cc2n[nH]c(=O)c3ccccc23)ccc1F)N1CCN(C(=O)C2CC2)CC1 [Olaparib] (partner 8 µM)
How it was run: as §1

Cell Line	relative viability ([1]; first compound 0.02 µM)	relative viability ([1]; first compound 0.06325 µM)	relative viability ([1]; first compound 0.6325 µM)	relative viability ([1]; first compound 2 µM)	relative viability ([2]; first compound 0.01 µM)	relative viability ([2]; first compound 0.03162 µM)	relative viability ([2]; first compound 0.3162 µM)	relative viability ([2]; first compound 1 µM)	relative viability ([3]; first compound 0.01 µM)	relative viability ([3]; first compound 0.03162 µM)	relative viability ([3]; first compound 0.3162 µM)	relative viability ([3]; first compound 1 µM)	relative viability ([4]; first compound 0.01 µM)	relative viability ([4]; first compound 0.03162 µM)	relative viability ([4]; first compound 0.3162 µM)	relative viability ([4]; first compound 1 µM)	relative viability ([5]; first compound 0.01 µM)	relative viability ([5]; first compound 0.03162 µM)	relative viability ([5]; first compound 0.3162 µM)	relative viability ([5]; first compound 1 µM)
LCLC-97TM1	0.751	0.867	0.442	0.224	0.881	0.929	0.887	0.804	1.67	1.35	0.697	0.52	0.578	0.779	0.625	0.734	0.381	0.351	0.273	0.234
EMC-BAC-2	1.23	0.945	0.926	0.656	1.06	1.01	0.905	0.885	0.859	0.959	0.901	0.805	0.468	0.442	0.442	0.392	0.438	0.462	0.451	0.419
HOP-62	1.01	0.906	0.803	0.874	1.09	1.16	1.15	1.06	0.946	1.12	0.939	1.26	0.491	0.632	0.492	0.656	0.472	0.412	0.574	0.573
NCI-H1793	0.152	0.189	0.152	0.168	0.786	0.779	0.834	0.578	0.616	0.742	0.745	0.617	0.818	0.773	0.636	0.478	0.87	1.02	0.791	0.766
NCI-H1355	0.731	0.593	0.582	0.272	0.94	1.02	0.952	0.952	0.97	1.04	0.851	0.743	0.598	0.667	0.541	0.49	0.767	0.829	0.672	0.761
COR-L23	0.768	0.808	0.562	0.442	1.1	0.959	1.12	0.948	0.949	1.03	0.92	1.1	0.462	0.52	0.426	0.408	0.32	0.31	0.297	0.328
A-427	0.864	0.97	0.855	0.724	1.05	1.2	1.16	1.15	1.11	1.03	1.09	1.12	0.871	0.877	0.916	0.869	0.724	0.704	0.78	0.699
NCI-H520	0.212	0.221	0.223	0.217	0.785	1.16	0.332	0.28	0.85	0.874	0.415	0.238	0.677	0.677	0.337	0.31	0.359	0.331	0.228	0.195
LXF-289	0.687	0.514	0.78	0.344	0.932	0.941	1.01	1.05	0.907	0.985	0.911	0.901	0.736	0.797	0.867	0.78	1.05	1.04	1.09	1.06
NCI-H2087	0.138	0.144	0.19	0.165	1.11	1.1	1.17	1.08	1.03	1.41	1.07	0.805	0.469	1.1	0.791	0.862	0.641	0.552	0.592	0.51
CAL-12T	0.452	0.249	0.339	0.143	1.07	0.962	1.15	1.19	0.682	0.698	0.667	0.454	0.672	0.8	0.748	0.768	0.81	0.666	0.703	0.714
NCI-H596	0.942	0.92	0.442	0.153	1.02	0.921	0.677	0.77	1.12	1.11	0.912	0.684	0.64	0.754	0.604	0.462	0.745	0.698	0.732	0.688
PC-14	0.162	0.151	0.141	0.123	0.903	0.993	0.985	0.994	0.297	0.316	0.287	0.221	0.73	0.79	0.55	0.669	0.274	0.313	0.371	0.354
NCI-H1915	0.784	0.864	0.699	0.642	1.08	1.16	1.07	1.05	0.954	0.984	0.978	1.02	0.567	0.511	0.483	0.534	0.238	0.246	0.257	0.254
NCI-H647	0.124	0.151	0.265	0.185	1.1	1.12	1.06	1.2	1.01	1.15	1.06	0.521	0.569	0.429	0.567	0.654	0.568	0.559	0.662	0.388
NCI-H322M	0.857	0.763	0.511	0.263	0.871	1.11	1.1	1.01	0.599	0.634	0.604	0.68	0.844	0.936	0.944	0.977	0.778	0.806	0.782	0.874

Cell Line	relative viability ([1]; first compound 0.02 µM)	relative viability ([1]; first compound 0.06325 µM)	relative viability ([1]; first compound 0.6325 µM)	relative viability ([1]; first compound 2 µM)	relative viability ([2]; first compound 0.01 µM)	relative viability ([2]; first compound 0.03162 µM)	relative viability ([2]; first compound 0.3162 µM)	relative viability ([2]; first compound 1 µM)	relative viability ([3]; first compound 0.01 µM)	relative viability ([3]; first compound 0.03162 µM)	relative viability ([3]; first compound 0.3162 µM)	relative viability ([3]; first compound 1 µM)	relative viability ([4]; first compound 0.01 µM)	relative viability ([4]; first compound 0.03162 µM)	relative viability ([4]; first compound 0.3162 µM)	relative viability ([4]; first compound 1 µM)	relative viability ([5]; first compound 0.01 µM)	relative viability ([5]; first compound 0.03162 µM)	relative viability ([5]; first compound 0.3162 µM)	relative viability ([5]; first compound 1 µM)
NCI-H2170	0.715	0.65	0.419	0.166	1.06	1.04	1.02	1.02	0.312	0.276	0.263	0.258	0.829	0.847	0.769	0.699	0.617	0.585	0.597	0.558
BEN	0.54	0.269	0.275	0.438	0.687	0.76	0.709	0.606	0.679	0.658	0.697	0.657	0.54	0.582	0.514	0.555	1.06	1.2	1.14	1.02
NCI-H2009	1.01	1.05	1.04	0.773	1.26	1.18	1.24	1.16	0.825	1.01	0.936	0.986	0.759	0.739	0.708	0.766	0.703	0.662	0.701	0.704
LC-2-ad	1.17	1.07	0.757	0.607	0.864	0.952	0.846	0.889	0.944	1.08	1.03	0.542	0.663	0.72	0.753	0.665	0.662	0.73	0.767	0.795
NCI-H1437	1.14	1.16	1.25	1.19	1.19	1.27	1.35	1.35	0.778	0.783	0.815	0.475	0.879	0.846	0.964	0.821	0.632	0.643	0.698	0.653
NCI-H3122	0.0804	0.107	0.0795	0.0927	0.998	0.896	1.05	0.944	1.01	1.07	1.06	1.1	0.924	0.969	0.944	0.871	0.681	0.687	0.656	0.63
NCI-H727	0.443	0.334	0.29	0.346	1.12	0.889	0.838	0.942	0.873	1.05	0.856	0.513	1.18	1.33	1.25	0.901	0.696	0.674	0.716	0.675
NCI-H1734	0.174	0.179	0.164	0.171	1	0.994	0.682	0.64	0.758	1.05	0.789	0.869	0.877	0.822	0.629	0.67	0.63	0.667	0.648	0.507
HCC-15	0.493	0.346	0.38	0.291	0.971	1.04	0.958	0.892	0.825	0.9	0.657	0.8	0.821	0.828	0.78	0.854	0.722	0.757	0.625	0.692
NCI-H2405	0.694	0.611	0.416	0.235	1.03	1.08	0.991	0.98	1.07	1.19	0.809	0.859	1.04	1.09	1.07	0.894	0.837	0.899	0.875	0.825
NCI-H1993	0.73	0.634	0.55	0.523	0.761	0.773	0.665	0.57	0.869	0.83	0.749	0.758	0.765	0.962	0.611	0.504	0.941	1.05	0.99	0.652
NCI-H1650	0.224	0.175	0.201	0.207	1.28	1.15	0.864	0.947	0.685	0.768	0.687	0.784	0.532	0.612	0.656	0.519	0.72	0.864	0.969	0.957
NCI-H460	0.0289	0.0281	0.0266	0.019	0.984	1.06	1.1	1.04	0.914	1.3	0.914	0.95	0.677	0.785	0.717	0.599	0.397	0.465	0.484	0.5
NCI-H1651	0.841	0.65	0.889	0.473	0.724	0.658	0.834	0.733	0.878	0.743	0.99	0.606	0.568	0.583	0.597	0.461	0.178	0.154	0.174	0.181
NCI-H1975	0.19	0.172	0.142	0.136	1.08	0.96	0.91	0.801	0.837	0.996	0.781	0.534	0.712	0.63	0.572	0.522	0.705	0.782	0.764	0.663
